Calls of active or inactive are those of the source. The calls are words filed in the database; no cut-off is given here.
How the values were obtained:
[1] = target: Neuronal acetylcholine receptor; assay: Binding affinity to nAChR in rat brain membranes; type: cell membranes, Membrane
[2] = target: T1, Neuronal acetylcholine receptor; alpha4/beta2 (Homo sapiens) (UniProt P17787+P43681); assay: Agonist activity at alpha4beta2 nAChR (unknown origin) expressed in Xenopus laevis oocytes assessed as increase in peak current at 30 uM at -60 mV holding potential by electrophysiology method; type: cell-based
[3] = target: Neuronal acetylcholine receptor subunit alpha-7 (Homo sapiens) (UniProt P36544); assay: Agonist activity at alpha7 nAChR (unknown origin) expressed in Xenopus laevis oocytes assessed as increase in peak current at 60 uM at -60 mV holding potential by electrophysiology method; type: cell-based
Chain of Neuronal acetylcholine receptor subunit alpha-7 (Homo sapiens) (P36544 whole entry): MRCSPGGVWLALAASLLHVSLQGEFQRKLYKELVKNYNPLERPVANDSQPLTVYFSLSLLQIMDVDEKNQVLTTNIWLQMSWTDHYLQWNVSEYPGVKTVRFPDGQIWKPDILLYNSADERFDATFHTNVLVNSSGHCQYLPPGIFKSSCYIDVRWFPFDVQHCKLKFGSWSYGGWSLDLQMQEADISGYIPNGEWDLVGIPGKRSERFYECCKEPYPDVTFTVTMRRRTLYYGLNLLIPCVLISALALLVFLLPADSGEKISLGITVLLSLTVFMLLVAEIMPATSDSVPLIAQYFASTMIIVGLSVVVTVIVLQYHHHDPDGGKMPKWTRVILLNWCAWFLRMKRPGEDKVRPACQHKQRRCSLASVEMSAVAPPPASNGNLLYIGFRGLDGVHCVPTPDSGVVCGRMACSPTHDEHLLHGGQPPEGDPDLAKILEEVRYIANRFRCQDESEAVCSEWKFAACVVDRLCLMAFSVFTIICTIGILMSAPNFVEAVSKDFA

[4] = target: T2, Neuronal acetylcholine receptor; alpha3/beta4 (Homo sapiens, UniProt P30926+P32297); assay: Agonist activity at human alpha3beta4 nAChR expressed in Xenopus laevis oocytes assessed as increase in peak current at 100 uM at -60 mV holding potential by electrophysiology method; type: cell-based
T2 sequence (P30926 whole entry): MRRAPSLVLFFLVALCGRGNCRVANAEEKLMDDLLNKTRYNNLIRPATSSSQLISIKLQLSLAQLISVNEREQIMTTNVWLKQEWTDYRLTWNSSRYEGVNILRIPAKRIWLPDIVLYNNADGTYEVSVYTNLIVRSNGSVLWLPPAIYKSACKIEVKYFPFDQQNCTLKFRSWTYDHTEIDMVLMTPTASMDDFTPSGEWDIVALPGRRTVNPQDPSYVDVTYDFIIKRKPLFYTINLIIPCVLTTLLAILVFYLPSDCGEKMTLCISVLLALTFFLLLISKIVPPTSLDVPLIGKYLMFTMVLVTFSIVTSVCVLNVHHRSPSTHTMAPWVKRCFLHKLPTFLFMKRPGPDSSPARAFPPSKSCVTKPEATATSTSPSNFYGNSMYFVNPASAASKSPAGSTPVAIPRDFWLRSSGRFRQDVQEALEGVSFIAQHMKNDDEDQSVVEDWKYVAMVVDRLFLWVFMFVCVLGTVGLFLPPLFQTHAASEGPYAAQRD
T2 sequence (P32297 whole entry): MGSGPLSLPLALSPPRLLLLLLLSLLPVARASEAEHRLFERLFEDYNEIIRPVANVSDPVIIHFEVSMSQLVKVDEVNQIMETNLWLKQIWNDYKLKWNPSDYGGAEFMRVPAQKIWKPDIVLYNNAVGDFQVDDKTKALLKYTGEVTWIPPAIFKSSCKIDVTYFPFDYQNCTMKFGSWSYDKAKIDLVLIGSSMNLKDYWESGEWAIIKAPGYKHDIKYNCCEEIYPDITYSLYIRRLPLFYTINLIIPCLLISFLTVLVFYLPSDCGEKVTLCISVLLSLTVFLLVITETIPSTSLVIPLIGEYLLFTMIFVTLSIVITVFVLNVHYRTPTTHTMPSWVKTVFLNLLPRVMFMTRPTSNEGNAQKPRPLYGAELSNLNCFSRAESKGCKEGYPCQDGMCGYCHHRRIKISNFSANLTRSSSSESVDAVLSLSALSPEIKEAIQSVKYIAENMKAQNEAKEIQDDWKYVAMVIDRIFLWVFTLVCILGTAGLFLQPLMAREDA

[5] = target: T1, Neuronal acetylcholine receptor; alpha4/beta2 (Homo sapiens); assay: Antagonist activity at alpha4beta2 nAChR (unknown origin) expressed in Xenopus laevis oocytes assessed as reduction in acetylcholine-induced peak current at 30 uM at -60 mV holding potential by electrophysiology method; type: cell-based
[6] = target: T2, Neuronal acetylcholine receptor; alpha3/beta4; assay: Antagonist activity at human alpha3beta4 nAChR expressed in Xenopus laevis oocytes assessed as reduction in acetylcholine-induced peak current at -60 mV holding potential by electrophysiology method; type: cell-based
[7] = target: T2, Neuronal acetylcholine receptor; alpha3/beta4; assay: Antagonist activity at human alpha3beta4 nAChR expressed in Xenopus laevis oocytes assessed as reduction in acetylcholine-induced peak current at 100 uM at -60 mV holding potential by electrophysiology method; type: cell-based
[8] = target: Neuronal acetylcholine receptor subunit alpha-7 (Homo sapiens) (UniProt P36544); assay: Antagonist activity at alpha7 nAChR (unknown origin) expressed in Xenopus laevis oocytes assessed as reduction in acetylcholine-induced peak current at 60 uM at -60 mV holding potential by electrophysiology method; type: cell-based

Row | Activity [2] | Activity [3] | Activity [4] | inhibition [5] | IC50 [6] | Ki [6] | inhibition [7] | inhibition [8] | SMILES | Kd [1]
1 | – | – | – | – | – | – | – | – | CN1CCC=C(c2ccc(Cl)nc2)C1 | 0.0022 µM
2 | inactive | inactive | inactive | inactive | 20 µM | 0.123 µM | Active | inactive | CN1CCC=C(c2cnc(F)c(-c3ccccc3)c2)C1 | –

Source: ChEMBL document CHEMBL4177568 (Bioorg Med Chem Lett, 2017)
